Legend:
PAI-1 = experiment: Urokinase-mediated clot lysis in the presence of PAI-1; type: biochemical; conditions: not shown
platelets = experiment: Platelet adhesion onto vitronectin-coated plates; type: cell-based; conditions: competitors each 250 nM (FIG. 4)
Method: Multiwell plates were coated with 5 μg/ml multimeric vitronectin (dissolved in bicarbonate buffer, pH 9.6) and blocked with 3% (wt/vol) bovine serum albumin for 16 h at 4° C. Platelets stained with calcein acetoxymethyl ester (calcein-AM, 2.5 μM) (15 min at 37° C. in the dark) at a density of 5×10^6 cells suspended in 50 μl HEPES-Tyrode buffer containing 4 mM MgCl2 were added together with the respective competitors and incubated for 30 min at 37° C. After three washes with phosphate buffered saline, bound platelets were lysed with 100 μl of lysis buffer (150 mM NaCl, 10 mM Tris-CH1, pH 7.5, 5 mM EDTA, 1% (wt/vol) NP-40, 1 mM phenyl-methylsulfonyl fluoride, 20 μg/ml soybean trypsin inhibitor) and quantified in a fluorescent plate reader (excitation filter 492 nm, emission filter 535 nm).
FIG. 4. The adhesion of platelets to vitronectin in the absence (−) or presence of HK, HKa, GST-domain 5(D5), or the peptides HK483 and HK486 (each 250 nM) was carried out. Cell adhesion is presented as % of control.

[1] = target: T1, platelet αIIbβ3-integrin with vitronectin (Homo sapiens, UniProt P04004); experiment: Binding of vitronectin to αIIbβ3-integrin; conditions: vitronectin 2 μg/ml, immobilized αIIbβ3-integrin 5 μg/ml, 10 μM ZnCl2 (FIG. 3)
T1 sequence (P04004 20-478): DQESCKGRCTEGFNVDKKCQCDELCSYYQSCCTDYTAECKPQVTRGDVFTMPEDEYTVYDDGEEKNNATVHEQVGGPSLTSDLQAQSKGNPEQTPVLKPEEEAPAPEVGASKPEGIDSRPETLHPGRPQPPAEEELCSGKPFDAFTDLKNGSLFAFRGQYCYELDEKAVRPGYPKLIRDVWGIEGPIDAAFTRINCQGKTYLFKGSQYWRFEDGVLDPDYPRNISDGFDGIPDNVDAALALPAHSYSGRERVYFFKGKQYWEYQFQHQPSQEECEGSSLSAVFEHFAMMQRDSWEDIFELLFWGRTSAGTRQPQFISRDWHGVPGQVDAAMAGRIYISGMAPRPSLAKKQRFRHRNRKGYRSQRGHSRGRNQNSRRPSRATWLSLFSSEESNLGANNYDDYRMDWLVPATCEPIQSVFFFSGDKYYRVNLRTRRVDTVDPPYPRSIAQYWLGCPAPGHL
Method: Microtiter plates were coated with 5 μg/ml αIIbβ3-integrin in Tris-buffered saline, pH 7.4, containing 1 mM CaCl2, 1 mM MgCl2 overnight at 4° C. and then blocked with 3% (w/v) bovine serum albumin. Binding of multimeric vitronectin (2 μg/ml) was performed in a final volume of 50 μl Tris-buffered saline containing 0.1% Tween-20, 0.3% (w/v) bovine serum albumin, 1 mM CaCl2 and 1 mM MgCl2 for 2 h at 22° C. in the absence or presence of 10 μM ZnCl2 and different kininogen forms. After the incubation period, monoclonal anti-vitronectin antibody VN7 at a concentration of 125 ng/ml was added, followed by addition of 1:1000 diluted peroxidase-conjugated goat anti-mouse immunoglobulins, respectively. Binding was quantitated as described above.
FIG. 3 The binding of vitronectin (2 μg/ml) to immobilized αIIbβ3-integrin (5 μg/ml) in the absence or presence of increasing concentrations of PAI-1 (filled squares), HKa (filled circles) or GST-domain 5 (open circles) in a buffer containing 10 μM ZnCl2 was carried out. Specific binding is presented as absorbance at 405 nm.

[2] = target: T2, binding of PAI-1 to vitronectin in PAI-1-depleted extracellular matrix of endothelial cells (Homo sapiens, UniProt P04004); experiment: Binding of PAI-1 to endothelial cell matrix; conditions: 2 μg/ml PAI-1; competitors each 500 nM; 10 μM ZnCl2 (FIG. 1)
T2 construct: The extracellular matrix of human umbilical vein endothelial cells was prepared according to standard procedures; endogenous in cells; host or cells: extracellular matrix of human umbilical vein endothelial cells, glycine-treated
T2 sequence (P04004 20-478): T1 sequence (P04004 20-478)
Method: The extracellular matrix of human umbilical vein endothelial cells was prepared according to standard procedures. PAI-1-depleted extracellular matrix was obtained by subsequent incubation with glycine (0.1 M, pH 2.3) for 2 h at 25° C. Wells were washed and blocked with phosphate buffered saline containing 3% (wt/vol) bovine serum albumin before proceeding with binding assays. Binding of PAI-1 (2 μg/ml) to the extracellular matrix was performed in a final volume of 50 μl Tris-buffered saline containing 0.1% Tween-20, 0.3% (wt/vol) bovine serum albumin for 2 h at 22° C. in the absence or presence of […] and different kininogen forms. Following the incubation period and a washing step, bound PAI-1 was quantitated by anti-human PAI-1 monoclonal antibody 12A4, followed by addition of 1:1000 diluted peroxidase-conjugated goat anti-mouse immunoglobulins. The conversion of the substrate 2,2,-azino-di(3-ethyl) benz-thiazoline sulphate was monitored at 405 nm in a Thermomax microtiter plate reader. […]
FIG. 1 The binding of 2 μg/ml PAI-1 to PAI-1-depleted (2 h glycine preincubation) extracellular matrix of cultured endothelial cells was tested in the absence (−)or presence of HK, HKa, GST-domain 5 (D5), the peptides HK483 and HK486 (each 500 nM) in a buffer containing 10 μM ZnCl2. Specific binding of PAI-1 is presented as absorbance at 405 nm.

platelet-rich plasma = experiment: Aggregation of platelet-rich plasma; type: cell-based; conditions: Adenosin-diphosphate (5 μM)-induced; competitors each 1000 nM (FIG. 5)
Method: Platelet-rich plasma from fresh whole blood in sodium citrate was prepared by centrifugation of anticoagulated whole blood at 150 g for 20 min. After incubation of 0.45 ml of platelet rich plasma with different kininogen forms as indicated in the figure legends, and addition of 5 μl of […] at a final concentration of 5 μM, platelet aggregation was induced. Aggregation was quantitated by following the change in light transmission in a standardized aggregometer.
FIG. 5 Adenosin-diphosphate (5 μM)-induced aggregation of platelet-rich plasma was performed in the absence (−) or presence of GST-domain 5 (D5), or the peptides HK483 and HK486 (each 1000 nM). Platelet aggregation is presented as % of control.

## His-483-Gly-497 (HGHGKHKNKGKKNGK; UniProt P01042 501-515, looked up, fragment) [HK483, peptide derived from the carboxy-terminus of the domain 5 of HK]
PAI-1
  urokinase-mediated clot lysis, which is inhibited in the presence of PAI-1: enhance
platelets
  αIIbβ3-integrin-mediated platelet adhesion to vitronectin: block
[1]
  interaction of platelet αIIbβ3-integrin with vitronectin: block
[2]
  binding of PAI-1 to vitronectin in PAI-1-depleted (glycine-treated) extracellular matrix of endothelial cells: inhibited
platelet-rich plasma
  aggregation of platelet-rich plasma: inhibit
